Experimental data published in paper PMC11056026, “The Evaluation of Teleost-Derived Antimicrobial Peptides Against Neisseria gonorrhoeae” (Cureus, 2024).
Where two headings read alike, the source gives them in different places. Residues, ends and D or L forms follow the SMILES beside them. No end group written: not given here.

What was measured:
HeLa cells = details: cited from earlier work
HT1080 cells = details: HT1080, 15 μg/mL or more; cited from earlier work
[1] = tested on: Neisseria gonorrhoeae MS11 strain; details: 24 h
Description: (§1) The synthetic AMP (Table 1) were purchased (Mission Bio, Taipei, Taiwan), and the inhibition activity test against GC was adapted from Bergman et al.. Briefly, GC were suspended in GCP broth to a concentration of 105 colony-forming units (CFU)/mL, and 180 μL of this suspension was added to each well of a 96-well plate with 20 μL peptide solution at various concentrations. The final concentration of AMP in each well ranged from 0.08 to 20 μg/mL. The samples were incubated at 37°C with 5% CO2 for 24 hours. After the incubation, 10 μL of the suspension from each well was spotted on GCK agar plates.

[2] = tested on: WHO gonococcal reference strain Z (WHO Z); details: GCP broth, 10^5 CFU/mL, 24 h, 37°C, 5% CO2, lowest concentration reducing >=90% of bacteria vs non-AMP control, means of three independent experiments
Description: as §1

[3] = tested on: ME180 endocervical epithelial cells; details: 24 hours; for Cell survival of ME180 cells vs non-treatment control (CCK-8): 10 μg/mL AMP, three independent experiments
Description: ME180 cells were seeded into 96-well microtiter plates at a 5 × 10^3 cells/well density and incubated for 24 hours. A final concentration of 10 μg/mL of AMP and 0.1% of positive control Triton-X were added to the well and incubated for 24 hours. Next, the Cell Counting Kit-8 (CCK-8) solution (Tools Biotech Inc., New Taipei City, Taiwan) was added and incubated for one hour. The absorbance at 450 nm was measured in each well, and the cytotoxicity level was analyzed according to the manufacturer's instructions.
GC colonization and infection only start after the GC's adherence to epithelial cells in the reproductive tract. Thus, adherence plays a crucial role in the initial colonization of GC on mucosal surfaces. […] Since these AMP may also affect epithelial cell viability, examining the effects of three AMP on both epithelial cells, and GC adherence is needed. To examine the effects of AMP on epithelial cells, ME180 cells were incubated with or without 10 μg/mL AMP for 24 hours, and the CCK-8 cell viability assay was conducted. Triton-X, a membrane-disrupting agent at a final concentration of […], was administered as a positive control.
ME180 cells were grown on a 96-well plate, and 10 μg/mL of designated AMP was added with or without inoculating MS11. (A) To measure cell cytotoxicity, cells with or without AMP or 0.1% Triton-X were incubated for 24 hours, and CCK-8 assay was performed to determine the cell survival rate. (B) To evaluate GC adherence, cells with MS11 were incubated for three hours to determine the adherent GC. GC treated with 0.5 μg/mL of azithromycin (AZI) served as a positive control. Non-treated GC was served as control (Ct). The bars represented the means of each group with standard deviations. Statistical significance was determined using a one-way ANOVA followed by post hoc Dunnett's test.

[4] = tested on: Neisseria gonorrhoeae MS11 strain; assay: Antibiotic susceptibility testing, disk diffusion (CLSI); format: cell-based; set-up: key: R, resistant; I, intermediate; S, susceptible; details: CLSI criteria, 24 h, 37°C, 5% CO2
Description: (§2) Briefly, the overnight colonies (16-20 hours) were suspended and diluted in GCP broth to a concentration of optical density (OD) = 0.1 at 650 nm. The bacterial suspension was then plated onto GC agar plates using swabs, and the disks were placed on the bacterial lawn with sterile tweezers. The plates were incubated at 37°C with 5% CO2 for 24 hours. The diameter of the inhibition zone was measured to determine the susceptibility according to the criteria recommended by the CLSI standard.

[5] = tested on: WHO gonococcal reference strain Z (WHO Z); assay: as above; format: cell-based, Neisseria gonorrhoeae; set-up: key: R, resistant; I, intermediate; S, susceptible; details: CLSI criteria, 24 h, 37°C, 5% CO2
Description: as §2

Listeria monocytogenes = details: cited from earlier work
From the text: (§3) [26], indicating the low efficacy of TH1-5. Piscidins were reported widely as the broadest teleost-derived AMP against several gram-positive and gram-negative species.

Vibrio spp. = details: 100 μg/mL or above; cited from earlier work
From the text: as §3

[6] = tested on: Neisseria gonorrhoeae MS11; assay: Transmission electron microscopy of treated GC; format: cell-based; details: AMP 10 μg/mL or azithromycin 0.5 μg/mL, four hours
From the text: The bars represented the means of each group with standard deviations.

[7] = tested on: Neisseria gonorrhoeae MS11 adherence to ME180 endocervical epithelial cells; assay: Adherence assay of GC to ME180 cells; format: cell-based; details: MS11 on ME180 cells, azithromycin 0.5 μg/mL, three hours
Description: Cells were then lysed with 1% saponin in sterile phosphate-buffered saline (PBS) and spread onto the GCK agar plate. The number of adherent GC was counted to determine the effect of AMP.
Non-treated GC was served as control (Ct).
To assess the effects of AMP on adherence, MS11 was inoculated onto ME180 cells in the presence or absence of AMP for three hours. The cells were then collected and plated on GCK agar. Adherent GC were determined by colony counts. Azithromycin was used as a control for comparison.

In the case of Pardaxin, the Concentration inhibiting cells (HeLa cells) is listed as no less than 15 µg/mL and the Inhibition of cells (HT1080 cells) is listed as “not”.
For FIHHIIGGLFSVGKHIHSLIHGH [TP3], the “MIC of AMP” value [1] was greater than 10 µg/mL and the “MIC of AMP” value [2] was greater than 20 µg/mL.
For “FFHHIFRGIVHVGKTIHRLVTG [PIS] [listing 1 of 2 here]”, the “Cell survival of ME180 cells vs non-treatment control (CCK-8)” value [3] was “No significant difference”.
In the case of “FFHHIFRGIVHVGKTIHRLVTG [PIS] [listing 2 of 2 here]”, the “MIC of AMP” value [2] is reported as 10 µg/mL.
In the case of `CO/N=C(\C(=O)N[C@@H]1C(=O)N2C(C(=O)O)=C(CSc3nc(=O)c(=O)[nH]n3C)CS[C@H]12)c1csc(N)n1` [Ceftriaxone], the Antibiotic susceptibility [4] is reported as “S” and the Antibiotic susceptibility [5] is reported as “I”.
For “FIHHIIGGLFSAGKAIHRLIRRRRR [TP4] [listing 1 of 2 here]”, the “MIC of AMP” value [2] was 10 µg/mL.
In the case of `CC[C@H](C)[C@H](NC(=O)CNC(=O)[C@@H]1CCCN1C(=O)[C@@H](NC(=O)[C@H](CS)NC(=O)[C@H](CS)NC(=O)CNC(=O)[C@H](CS)NC(=O)[C@H](CS)NC(=O)[C@H](Cc1ccccc1)NC(=O)[C@H](CCCNC(=N)N)NC(=O)[C@H](CS)NC(=O)[C@H](CCCCN)NC(=O)[C@@H](NC(=O)CN)[C@@H](C)CC)[C@@H](C)O)C(=O)N[C@@H](CS)C(=O)NCC(=O)N[C@H](C(=O)N[C@@H](CS)C(=O)N[C@@H](CS)C(=O)N[C@@H](CCCNC(=N)N)C(=O)N[C@@H](Cc1ccccc1)C(=O)O)C(C)C` [TH1-5] (H-GIKCRFCCGCCTPGICGVCCRF-OH; N-terminus and C-terminus assumed), the “MIC of AMP” value ([1]; MS11 strain, GCP broth, 10^5 CFU/mL, 37°C, 5% CO2, lowest concentration reducing >=90% of bacteria vs non-AMP control, means of three independent experiments) is given as greater than 10 µg/mL, the “MIC of AMP” value [2] is given as greater than 20 µg/mL and the “Concentration exhibiting antibacterial activity” value (Listeria monocytogenes) is given as no less than 100 µg/mL. The Antibacterial activity (Vibrio spp.) was “not”.
With `CC(C)(C)CC(C)(C)c1ccc(OCCO)cc1` [Triton-X, reference compound] the “Decrease in cell survival of ME180 cells (CCK-8)” value ([3]; positive control, final concentration of 0.01% (0.1% elsewhere in the source)) was 88%.
For `CC[C@H]1OC(=O)[C@H](C)[C@@H](O[C@H]2C[C@@](C)(OC)[C@@H](O)[C@H](C)O2)[C@H](C)[C@@H](O[C@@H]2O[C@H](C)C[C@H](N(C)C)[C@H]2O)[C@](C)(O)C[C@@H](C)CN(C)[C@H](C)[C@@H](O)[C@]1(C)O` [Azithromycin], the Antibiotic susceptibility [4] was “S”, the Antibiotic susceptibility [5] was “R” and the “Morphological and structural changes of GC (TEM)” value [6] was “intact membranes”. The “Reduction of adherent GC compared to the AMP-treated group” value [7] was “significantly higher reduction”.
For “FIHHIIGGLFSAGKAIHRLIRRRRR [TP4] [listing 2 of 2 here]”, the “Cell survival of ME180 cells vs non-treatment control (CCK-8)” value [3] was “No significant difference”.
